This data set in a line: Solubility in aqueous media. It is filed as physicochemical. An excerpt:
The compounds mentioned at the outset and pharmaceutically usable salts thereof, such as, for example, ethanolamine salts thereof, have low solubilities in aqueous media. […] These poor solubilities have the consequence that the compound can only be taken up slowly and to an inadequate extent by the body. This is associated with poor bioavailability and a slow increase in the concentration in the blood.

≈ marks a conversion by molar mass, not a printed value. Where two headings read alike, the source gives them in different places.

For the compound `COc1ccc(CNc2nc(C3CCC(C(=O)O)CC3)nc3sc4ccccc4c23)cc1Cl` (centres unmarked) [4-[4-(3-Chloro-4-methoxybenzylamino)benzo[4,5]thieno[2,3-d]pyrimidin-2-yl]cyclohexanecarboxylic acid], the solubility is 0.022 µg/mL (≈ 0.0456 µM) (aqueous buffer, phosphate buffer (pH 1.0), read-out: solubility); 0.0016 µg/mL (≈ 0.00332 µM) (aqueous buffer, phosphate buffer (pH 6), read-out: solubility); 0.019 µg/mL (≈ 0.0394 µM) (aqueous buffer, phosphate buffer (pH 7.0), read-out: solubility); 1 mg/100 ml (synthetic gastric juice); 6 mg/100 ml (synthetic intestinal juice).

Source of the values: US20040082600A1, “Pharmaceutical composition” (priority 2001, published 2004).
